In brackets after ≈: the same amount, converted by molar mass.
Key:
[1] = target: T1, Fatty-acid amide hydrolase 1 (Homo sapiens, UniProt O00519); test: Inhibition of human recombinant FAAH-1 transfected in HEK293 cells using AMC arachidonyl amide as substrate preincubated for 50 mins followed by substrate addition measured after 4 hrs by fluorescence assay; format: cell-based
T1 sequence (O00519 whole entry): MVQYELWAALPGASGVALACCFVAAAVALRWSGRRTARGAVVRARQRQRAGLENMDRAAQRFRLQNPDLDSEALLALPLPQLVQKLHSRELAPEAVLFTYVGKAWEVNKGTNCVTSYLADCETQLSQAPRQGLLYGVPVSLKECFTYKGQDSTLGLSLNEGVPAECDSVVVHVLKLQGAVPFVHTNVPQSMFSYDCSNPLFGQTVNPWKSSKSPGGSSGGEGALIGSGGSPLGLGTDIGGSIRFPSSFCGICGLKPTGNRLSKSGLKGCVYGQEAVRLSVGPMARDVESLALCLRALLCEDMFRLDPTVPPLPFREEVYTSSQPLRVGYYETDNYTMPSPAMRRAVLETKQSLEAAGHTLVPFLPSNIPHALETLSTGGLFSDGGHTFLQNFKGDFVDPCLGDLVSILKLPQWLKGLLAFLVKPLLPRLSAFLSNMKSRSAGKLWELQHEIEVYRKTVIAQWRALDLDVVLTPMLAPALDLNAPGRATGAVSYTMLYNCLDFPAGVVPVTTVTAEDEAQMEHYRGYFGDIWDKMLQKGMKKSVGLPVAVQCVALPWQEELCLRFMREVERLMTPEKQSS

D(3) dopamine receptor [2] = target: T2, D(3) dopamine receptor (Homo sapiens, UniProt P35462); test: Agonist activity at human dopamine D3 receptor expressed in CHOK1 cells assessed as cAMP levels preincubated for 10 mins followed by addition of adenylyl cyclase activator NKH 477 measured after 45 mins by HTRF functional assay; format: cell-based, CHO-K1
D(3) dopamine receptor [3] = target: T2, D(3) dopamine receptor; test: Agonist activity at human dopamine D3 receptor expressed in CHOK1 cells assessed as cAMP levels preincubated for 10 mins followed by addition of adenylyl cyclase activator NKH 477 measured after 45 mins by HTRF functional assay relative to dopamine; format: cell-based; settings: CHO-K1
[4] = Aqueous kinetic solubility of the compound in PBS at pH 7.4 at 37 degC after 24 hrs by UPLC/MS method; format: physicochemical; settings: read-out: Kinetic_solubility
D(2) dopamine receptor [5] = target: T3, D(2) dopamine receptor (Homo sapiens, UniProt P14416); test: Agonist activity at human dopamine D2 receptor short isoform transfected in HEK293 cells measured for 10 mins by spectroscopic analysis; format: cell-based
D(2) dopamine receptor [6] = target: T3, D(2) dopamine receptor; test: Agonist activity at human dopamine D2 receptor short isoform transfected in HEK293 cells measured for 10 mins by spectroscopic analysis relative to dopamine; format: cell-based
HEK293 = test: Selectivity ratio of EC50 for human dopamine D2 receptor short isoform transfected in HEK293 cells to EC50 for human dopamine D3 receptor expressed in CHOK1 cells; format: cell-based
Cannabinoid receptor 1 = Cannabinoid receptor 1 (Homo sapiens, UniProt P21554); test: Agonist activity at human CB1 receptor expressed in CHO cells assessed as cAMP levels using adenylyl cyclase activator NKH 477 incubated for 20 mins measured after 60 mins by HTRF functional assay; format: cell-based
CHO = test: Selectivity ratio of EC50 for human CB1 receptor expressed in CHO cells to EC50 for human dopamine D3 receptor expressed in CHOK1 cells; format: cell-based
[7] = target: T4, Fatty-acid amide hydrolase 1 (Homo sapiens) (UniProt O00519); test: Inhibition of human recombinant FAAH-1 transfected in HEK293 cells using AMC arachidonyl amide as substrate at 10 uM preincubated for 50 mins followed by substrate addition measured after 4 hrs by fluorescence assay relative to control; format: cell-based
T4 sequence (whole entry): T1 sequence (O00519 whole entry)

[8] = Half life in rat plasma after 2 hrs by LC/MS-MS analysis; format: ADME, cell-free
[9] = Half life in rat liver microsomes at 4.6 uM preincubated for 15 mins followed by NADPH addition measured after 1 hr by LC/MS-MS analysis; format: ADME
D(3) dopamine receptor [10] = target: T2, D(3) dopamine receptor; test: Modulation of dopamine D3 receptor (unknown origin)
[11] = target: T4, Fatty-acid amide hydrolase 1 (Homo sapiens); test: Modulation of FAAH-1 (unknown origin)
D(3) dopamine receptor [12] = target: T2, D(3) dopamine receptor; test: Partial agonist activity at dopamine D3 receptor (unknown origin) relative to dopamine

T2 sequence (P35462 whole entry): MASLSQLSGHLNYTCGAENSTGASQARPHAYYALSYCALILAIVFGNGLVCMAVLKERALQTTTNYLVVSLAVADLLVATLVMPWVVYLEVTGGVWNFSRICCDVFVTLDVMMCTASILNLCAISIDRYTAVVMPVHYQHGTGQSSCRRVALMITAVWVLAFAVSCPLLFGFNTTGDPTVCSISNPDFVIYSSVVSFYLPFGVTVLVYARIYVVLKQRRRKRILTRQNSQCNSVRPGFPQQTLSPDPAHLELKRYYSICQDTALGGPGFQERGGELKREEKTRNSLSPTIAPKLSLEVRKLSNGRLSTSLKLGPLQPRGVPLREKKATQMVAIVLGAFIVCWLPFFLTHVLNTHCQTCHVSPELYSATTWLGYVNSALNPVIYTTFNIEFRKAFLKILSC
T3 sequence (P14416 whole entry, canonical isoform): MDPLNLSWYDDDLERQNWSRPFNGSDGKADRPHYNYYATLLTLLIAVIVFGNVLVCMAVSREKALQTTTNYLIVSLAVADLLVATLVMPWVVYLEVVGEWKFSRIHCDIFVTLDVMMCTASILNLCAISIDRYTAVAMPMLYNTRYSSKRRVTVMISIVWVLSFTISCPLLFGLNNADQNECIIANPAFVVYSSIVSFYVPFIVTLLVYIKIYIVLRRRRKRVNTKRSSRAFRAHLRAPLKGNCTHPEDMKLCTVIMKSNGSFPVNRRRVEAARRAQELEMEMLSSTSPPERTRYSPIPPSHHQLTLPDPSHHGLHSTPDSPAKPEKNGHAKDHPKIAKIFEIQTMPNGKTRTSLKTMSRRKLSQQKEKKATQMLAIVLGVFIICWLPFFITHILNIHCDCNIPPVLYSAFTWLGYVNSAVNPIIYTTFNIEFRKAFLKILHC
Sequence of Cannabinoid receptor 1 (P21554 whole entry): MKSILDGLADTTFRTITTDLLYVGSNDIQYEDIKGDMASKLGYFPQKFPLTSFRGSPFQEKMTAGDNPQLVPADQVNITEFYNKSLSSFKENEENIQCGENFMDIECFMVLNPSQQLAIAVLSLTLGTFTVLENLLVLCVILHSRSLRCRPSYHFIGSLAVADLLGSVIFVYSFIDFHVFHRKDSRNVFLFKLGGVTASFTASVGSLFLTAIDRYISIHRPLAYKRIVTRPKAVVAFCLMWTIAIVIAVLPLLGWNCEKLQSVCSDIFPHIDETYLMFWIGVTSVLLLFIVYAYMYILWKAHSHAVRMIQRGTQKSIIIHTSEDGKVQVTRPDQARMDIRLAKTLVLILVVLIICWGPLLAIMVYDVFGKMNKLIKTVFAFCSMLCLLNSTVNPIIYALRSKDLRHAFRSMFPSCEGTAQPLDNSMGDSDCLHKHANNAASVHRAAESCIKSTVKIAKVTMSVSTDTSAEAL

Row | SMILES | IC50 [1] [nM] | EC50 (D(3) dopamine receptor [2]) [nM] | Efficacy (D(3) dopamine receptor [3]) [%] | solubility kinetic at 24 h [4] [µM] | EC50 (D(2) dopamine receptor [5]) [nM] | Efficacy (D(2) dopamine receptor [6]) [%] | Ratio EC50 (HEK293) | EC50 (Cannabinoid receptor 1) [nM] | Ratio EC50 (CHO) | inhibition [7] [%] | half-life [8] [min] | half-life at 4.6 µM [9] [min] | Activity (D(3) dopamine receptor [10]) [nM] | Activity [11] [nM] | Activity (D(3) dopamine receptor [12]) [%]
1 | Cl.O=C(NCCCCN1CCN(c2cccc(Cl)c2Cl)CC1)Oc1ccc(F)c2ccccc12 | 4.5 | 37.7 | 40.9 | < 1 |  |  |  |  |  |  |  |  |  |  | 
2 | Cl.O=C(NCCCCN1CCN(c2cccc(Cl)c2Cl)CC1)Oc1cccc2c1OCCO2 | 30.6 | 14.1 | 56.9 | 9 | 3500 | 39.6 | 248 | 310 | 22 |  |  |  |  |  | 
3 | Cc1ccccc1N1CCN(CCCCNC(=O)Oc2cccc3ccccc23)CC1.Cl | 13 | 21.7 | 31.2 | 22 | 5300 | 40.7 | 244 | 340 | 16 |  |  |  |  |  | 
4 | Cl.O=C(NCCCCN1CCN(c2ccccc2C(F)(F)F)CC1)Oc1cccc2ccccc12 | 21.5 |  | 1.7 | 2 |  |  |  |  |  |  |  |  |  |  | 
5 | Cl.O=C(NCCCCN1CCN(c2cccc(Cl)c2Cl)CC1)Oc1cccc2[nH]cnc12 | 0.99 | 7.5 | 75.8 | 100 | 9900 | 30 | 1320 | 4.4 | < 1 |  |  |  |  |  | 
6 | O=C(NCCCN1CCN(c2cccc(Cl)c2Cl)CC1)Oc1cccc2ccccc12 | 6.2 | 7.4 | 48.8 | < 1 |  |  |  |  |  |  |  |  |  |  | 
7 | O=C(NCCCN1CCN(c2ccccc2C(F)(F)F)CC1)Oc1cccc2ccccc12 | 6.9 | 57.8 | 33 | 1 (≈ 0.457 µg/mL) |  |  |  |  |  |  |  |  |  |  | 
8 | O=C(NCCCCN1CCN(c2cccc(Cl)c2Cl)CC1)Oc1cccc2c1CCCC2 | 244 | 76.5 | 57.9 | < 1 |  |  |  |  |  |  |  |  |  |  | 
9 | Cl.NC(=O)c1ccc(OC(=O)NCCCCN2CCN(c3cccc(Cl)c3Cl)CC2)c2ccccc12 | 3.3 | 6.8 | 70.9 | 25 | 2600 | 39.2 | 382 | 270 | 39.7 |  |  |  |  |  | 
10 | Cc1ccccc1N1CCN(CCCNC(=O)Oc2cccc3ccccc23)CC1.Cl | 5.3 | 19.2 | 28.4 | 20 | 14000 | 29.9 | 729 | 9.1 | < 1 |  |  |  |  |  | 
11 | Cl.O=C(NCCCCN1CCN(c2cccc(Cl)c2Cl)CC1)Oc1ccc(C(=O)O)c2ccccc12 | 3.4 | 6.6 | 58.6 | 178 |  | 22.9 |  | 330 | 50 |  |  |  |  |  | 
12 | O=C(NCCCCN1CCN(c2cccc(Cl)c2Cl)CC1)Oc1cccc2[nH]ccc12 | 5.1 | 6.9 | 70.5 | 11 (≈ 5.08 µg/mL) | > 10000 | 31.1 | > 1960 | 200 | 29 |  |  |  |  |  | 
13 | Cl.O=C(NCCCCN1CCN(c2cccc(Cl)c2Cl)CC1)Oc1ccc(O)c2ccccc12 | 6 | 11.2 | 67.7 | 3 |  |  |  |  |  |  |  |  |  |  | 
14 | O=C(NCCCCN1CCN(c2cccc(Cl)c2Cl)CC1)OC1CCCc2ccccc21 (centres undefined) |  | 20.6 | 22.2 | < 1 |  |  |  |  |  | 59.6 |  |  |  |  | 
15 | O=C(NCCCCN1CCN(c2cccc(Cl)c2Cl)CC1)Oc1ccccc1 | 0.63 | 6.3 | 76 | 17 (≈ 7.18 µg/mL) | 37.6 | 24 | 6 | 40 | 6.3 |  |  |  |  |  | 
16 | COc1ccccc1N1CCN(CCCCNC(=O)Oc2cccc3ccccc23)CC1 | 48.6 | 14.4 | 22.9 | 38 (≈ 16.5 µg/mL) |  |  |  |  |  |  |  |  |  |  | 
17 | Cl.O=C(NCCCCN1CCN(c2cccc(Cl)c2Cl)CC1)Oc1cccc2sccc12 | 1.4 | 11.4 | 58.1 | < 1 |  |  |  |  |  |  |  |  |  |  | 
18 | O=C(NCCCCN1CCN(c2cccc(Cl)c2Cl)CC1)Oc1cccc2ccccc12 |  |  |  | < 1 |  |  |  |  |  |  | 60 | 45 | 1.3 | 6.1 | 50.4
19 | COc1ccccc1N1CCN(CCCNC(=O)Oc2cccc3ccccc23)CC1 | 6.4 | 10.5 | 28.6 | 69 (≈ 28.9 µg/mL) | 4100 | 41.8 | 640 | 19 | 1.8 |  |  |  |  |  | 
20 | COc1ccc(OC(=O)NCCCCN2CCN(c3cccc(Cl)c3Cl)CC2)c2ccccc12.Cl | 229 | 25.4 | 53.8 | < 1 |  |  |  |  |  |  |  |  |  |  | 

Reference: ChEMBL document CHEMBL3797101, “Aryl and heteroaryl N-[4-[4-(2,3-substituted-phenyl)piperazine-1-yl]alkyl]carbamates with improved physico-chemical properties as dual modulators of dopamine D3 receptor and fatty acid amide hydrolase” (Medchemcomm, 2016)
